From PubChem BioAssay AID2253 (Southern Research Specialized Biocontainment Screening …, 2010)

Test system: THP-1 viability, CellTiter-Glo luminescence, 72 h
Assay: human monocytic cell viability reduction – S. typhimurium screen hits, cytotoxicity control for Salmonella PhoP regulon inhibitors, dose response (AID 2253)

Structure (SMILES) | EC50 [µM]
COc1cccc(Cn2cnc3c(NS(=O)(=O)c4cccc(Cl)c4Cl)c(C)c(C)cc32)c1 | 40.4
O=C(Nc1ccc(O)cc1)c1cc2n(n1)C(C(F)(F)F)CC(c1ccco1)N2 (stereo not drawn) | 11.9
OCCN1CCN(Cc2cc(Cl)c3cccnc3c2O)CC1 | 12
COc1cc(NC(=O)Nc2cccc(Cl)c2)c(OC)cc1NC(=O)CN1CCCCC1 | 15.5
NCC12CC3CC(C1)CC(c1ccc(Br)cc1)(C3)C2 | 8.36
Fc1ccc(Nc2nc(NCc3ccco3)c3ccccc3n2)cc1 | 6.54
c1ccc(C2CNCc3c2ccc2ccccc32)cc1 (stereo not drawn) | 11
O=C(Nc1cccc(Cl)c1)Nc1ccc2c(c1)OCO2 | 36.8
O=[N+]([O-])c1cc(CN2CCCC2)c2cccnc2c1O | 41.2
CCCCCCCCCCCCCCCC[n+]1ccc(/C=N/O)cc1 | 0.37
Oc1ccc(CN2CCN(Cc3ccccc3)CC2)c2cccnc12 | 12.9
O=C(N/N=C/c1cccc([N+](=O)[O-])c1O)c1cccs1 | 13.4
Cc1ccc(-c2cc(-c3ccc(Cl)cc3)c(C#N)c(N)n2)o1 | 26.2
CCOc1ccc(Nc2c3ccccc3nc3ccccc23)cc1 | 1.24
Cc1cc(C(=O)N/N=C/c2ccc(O)c(O)c2O)c(C)n1-c1ccccc1 | 4.48
NC1=NC2(CCCCC2)N=C(Nc2ccc(Br)cc2)N1 | 2.8
CC(NCc1ccc(Cl)c(Cl)c1)C(O)c1ccccc1 (stereo not drawn) | 40
Nc1ncn(C2O[C@H](CO)[C@@H](O)[C@H]2O)c(=O)n1 (stereo partly drawn) | 10.8
C#CCOc1ccc(/C=C2\SC(=S)N(Cc3cccnc3)C2=O)cc1 | 5.67
CCN(CC)c1ccc(S(=O)(=O)Nc2cc(Cl)ccc2Cl)cc1NC(=S)NC(=O)C1CCCC1 | 40
c1ccc2c(NC3=NCCS3)cccc2c1 | 31.8
Oc1c(CN2CCCCC2)cc(COCc2ccccc2)c2cccnc12 | 6
Oc1c(Cl)cc(Cl)c2cccnc12 | 12.8
CC(=O)NC(c1ccc2ccccc2c1)c1ccc2cccnc2c1O (stereo not drawn) | 0.24

Structure (SMILES) | EC50 [µM]
CC(=O)NC(c1cccs1)c1cc([N+](=O)[O-])c2cccnc2c1O (stereo not drawn) | 10.1
Oc1ccc(-c2n[nH]c(=S)n2-c2ccc3c(c2)OCCO3)c(O)c1 | 33.8
CCc1nn2cc(C(=O)c3cc(Cl)ccc3O)cnc2c1-c1ccc(F)cc1 | 38.3
CCCCCCCCCCCCCCCCn1cc[n+](C)c1 | 0.37
Cc1ccccc1OCCCCCn1ccnc1 | 24.4
N=c1n(CC(=O)c2ccc([N+](=O)[O-])cc2)c2ccccc2n1Cc1ccccc1 | 14.3
CCN(CC)CCOc1ccc2c(c1)C(=NNC(=O)c1ccccn1)c1cc(OCCN(CC)CC)ccc1-2 | 3.57
Cc1ccc(Nc2cc(C)nn2-c2nc(C)cc(=O)[nH]2)cc1 | 0.62
Cc1ccc(SC(c2ccc(C)cc2)C(Cn2cncn2)C(=O)c2ccccc2)cc1 (stereo not drawn) | 49.8
O=[N+]([O-])c1ccc(-n2nnnc2-c2ccccc2)c([N+](=O)[O-])c1 | 10.1
O=C(NNc1c2ccccc2nc2ccccc12)c1cccc(O)c1 | 23.2
CCCCCCNC(=O)c1cn(CC)c2cc(N3CCN(C)CC3)c(F)cc2c1=O | 16.1
Cc1ccc2c(c1)[nH]c1c(N3CCN(Cc4ccccc4)CC3)ncnc12 | 18.9
C=CCc1cccc(C2Nc3ccccc3C(=O)N2O)c1O (stereo not drawn) | 43.1
O=C(Nc1nnc(-c2cccs2)o1)c1cccc(Oc2ccccc2)c1 | 19.6
O=C(Oc1c(Cl)cc(Cl)c2cccnc12)c1ccco1 | 11.5
S=C(Nc1ccccc1)Nc1nc2ccccc2n1CCOc1ccc(Cl)cc1 | 15
COC(=O)C(C)NC(=S)N1CCN(c2c(F)cc3c(=O)c(C(=O)O)cn(C4CC4)c3c2OC)CC1C (stereo not drawn) | 20
COc1ccccc1/C=C1\CCCC2=C1Nc1nnnn1C2c1ccccc1OC (stereo not drawn) | 19.6
Oc1ccccc1CN1CCCN(Cc2ccccc2O)C1 | 23.8
O=C1c2ccccc2NC(c2ccc(-c3ccc(Br)cc3)o2)N1O (stereo not drawn) | 7.16
O=C(NC(NC(=S)Nc1ccc(Cl)c(Cl)c1)C(Cl)(Cl)Cl)c1ccco1 (stereo not drawn) | 23.5
O=C(N/N=C\c1cccc([N+](=O)[O-])c1O)C1COc2ccccc2O1 (stereo not drawn) | 21.5
CCOc1ccc(/C=C/C(=O)Nc2ccc(OC)cc2[N+](=O)[O-])cc1 | 27.5

Structure (SMILES) | EC50 [µM]
O=C(NCCNc1ccc([N+](=O)[O-])cc1C(F)(F)F)c1ccc(F)cc1 | 43.7
O=S(=O)(Nc1ccc2ccccc2c1)c1ccccc1 | 47.2
N#C/C(=C\c1ccc(F)c(F)c1)C(=O)NC1CCCCC1 | 46.6
Cc1cc(/C=N/n2cnnc2)c(C)n1-c1ccc(OCc2ccc(F)cc2)cc1 | 12.7
CCCCCCCSc1cc(OC)c(CCNC)cc1OC | 6.34
Nc1ccc(N(c2ccccc2)c2ccc(N)cc2)cc1 | 4.85
CN(C)CCCNc1cc(C(C)(C)C)nc2c(-c3ccccc3)cnn12 | 9.26
Cc1ccc(-c2cc(C(=O)Nc3nccs3)c3ccccc3n2)o1 | 31.7
NNC(=O)CNC(c1ccccc1)c1cc(Br)ccc1NC(=O)c1ccc(Br)cc1 (stereo not drawn) | 39.5
N/C(=N\OC(=O)N1c2ccccc2Sc2ccccc21)c1ccccc1 | 25.1
COC(=O)c1c(C)oc2ccc(NS(=O)(=O)c3cccs3)cc12 | 48.4
C=CCNc1ncnc2c1[nH]c1ccc(Cl)cc12 | 12.2
C[C@H]1c2cccc(O)c2C(O)=C2C(=O)[C@]3(O)C(O)=C(C(N)=O)C(=O)[C@@H](N(C)C)[C@@H]3[C@@H](O)[C@@H]21 | 27.5
O=C(c1ccco1)[C@@H]1[C@@H]2C(=O)N(c3ccc(F)cc3)C(=O)[C@@H]2[C@H]2C=Cc3ccccc3N21 | 23.5
O=C(c1ccc(F)cc1)C(CN1CCOCC1)c1ccccc1 (stereo not drawn) | 6.92
COc1ccc(C)cc1C(=O)CCC(=O)Nc1ccccc1N1CCOCC1 | 8.33
COc1cc(C(=O)Oc2c(CN3CCOCC3)cc(Cl)c3cccnc23)cc(OC)c1OC | 4.46
O=c1ccc2ccc(Oc3ccc([N+](=O)[O-])cc3[N+](=O)[O-])cc2o1 | 7.86
Cc1cccc(Nc2cc(C)c3c(O)cccc3n2)c1C | 8.98
C(=C\c1ccccc1)/C=N/Nc1nc2ccccc2[nH]1 | 15.5
Cc1ccc(-n2c(C)cc(C3=NNC(=NC4CC4)SC3)c2C)cc1C | 21.4
COc1ccc2ccccc2c1/C=N/NC(=O)c1sc(N)c(C#N)c1C | 30.1
O=S(=O)(/N=C(/Nc1cccc2ccccc12)c1ccccc1)c1cccs1 | 28.9
CNC[C@H](CC1CCCCC1)NC[C@H](Cc1ccccc1)NCCC12CC3CC(CC(C3)C1)C2 | 3.28

Structure (SMILES) | EC50 [µM]
O=C(Nc1cccc(N=Cc2cc(Br)cc(Br)c2O)c1)c1ccco1 | 38.5
O=C(Nc1ccccc1)Nc1ccc(Cl)c([N+](=O)[O-])c1 | 14.2
O=C(NCCCc1ccccc1)Nc1cccc(Cl)c1 | 37
FC(F)(F)c1ccc2c(c1)N(CCCN1CCN(CCCl)CC1)c1ccccc1S2 | 20.6
CCCCOc1ccc(CSC(=N)N)cc1[N+](=O)[O-] | 16.5
Cc1ccc(C(=O)N/N=C/c2cc(Br)ccc2O)cn1 | 1.78
NC1=NC[C@H](Cc2ccccc2)N1CCCCC1CCCCC1 | 3.71
O=C(N/N=C/c1ccc(O)cc1O)C(=O)N/N=C/c1ccc(O)cc1O | 6.9
C#CCN1C(=O)C(O)(CC(=O)c2ccc(OC)c(OC)c2)c2ccccc21 (stereo not drawn) | 30.5
Oc1c(Cl)cc(Cl)c(Cl)c1Cc1c(O)c(Cl)cc(Cl)c1Cl | 14.7
O=[N+]([O-])c1ccc(NCCCNS(=O)(=O)c2ccccc2)c(Cl)c1 | 42.4
O=C(Cc1c[nH]c2ccccc12)N/N=C/c1ccccc1O | 16.2
NNC(=S)Nc1ccc(Cl)cc1 | 48.1
Cc1ccc(C(C[N+](=O)[O-])c2c(C)cc3ccccn23)cc1 (stereo not drawn) | 15.4
COc1ccccc1Nc1nc(NCc2ccco2)c2ccccc2n1 | 16.2
O=C(Cc1cccs1)Nc1cccc(-c2nc3cc4ccccc4cc3[nH]2)c1 | 12.5
Cc1[nH]nc2c1C(c1cc(Br)cs1)C(C#N)=C(N)O2 (stereo not drawn) | 11.2
O=C(NCCN1CCOCC1)c1ccc2ccccc2c1 | < 0.1
c1ccc2c(C3=NNC(=NC4CCCCC4)SC3)c[nH]c2c1 | 19.1
CCN1/C(=C/C(C)=C/c2sc3ccccc3[n+]2CC)Sc2ccccc21 | 13.6
Oc1ccccc1Nc1nc(NCc2ccco2)c2ccccc2n1 | 13.2
NNC(=O)c1cc2ccccc2cc1O | 11.9
CCOC(=S)SCC(=O)Nc1nc(-c2ccccc2)cs1 | 4.91
Oc1cccc2ccc[n+](CC(O)Cn3c4ccccc4c4ccccc43)c12 (stereo not drawn) | 11.1

Structure (SMILES) | EC50 [µM]
Cc1cccc(N2CCc3c2nc2ccccc2c3N)c1 | 47.6
ON=C1/C(=N\O)CC2(C/C1=N/O)OCCO2 | 34.5
O=C(CSc1nc2ccccc2s1)N/N=C/c1cc([N+](=O)[O-])ccc1O | 26.4
COc1cccc2[nH]c3c(N4CCN(Cc5ccc6c(c5)OCO6)CC4)ncnc3c12 | 47.9
Cc1ccc(-c2c[n+](CC(=O)Nc3nc(-c4ccc(F)cc4)cs3)c3n2CCC3)cc1 | 9.65
O=S1(=O)N=C(N/N=C/c2ccccn2)c2ccccc21 | 22.9
NCCc1c(-c2ccccc2)n(-c2ccccc2)c2ccccc12 | 4.76
Cc1ccc(S(=O)(=O)Nc2cc(Cl)c(O)c3ncccc23)cc1 | 1.55
O=C1NC2=C(CCc3ccccc32)C(c2ccc(Br)cc2)N1 (stereo not drawn) | 19.3
CC1OC(Nc2cccc3ccccc23)C(O)C(O)C1O (stereo not drawn) | 12
S=C(NN=C1C2CC3CC(C2)CC1C3)Nc1ccccc1 | 30.4
O=c1[nH][nH]c(-c2ccccc2O)c1C(C[N+](=O)[O-])c1cccc(Cl)c1 (stereo not drawn) | 33.4
CCOc1cc(/C=N/N=C(N)N)ccc1OCc1ccc(Cl)cc1 | 5.19
O=C(c1[nH]ncc1-c1ccc(Cl)cc1)C1CO1 (stereo not drawn) | 13.3
Cc1cccc(Nc2c3c(nc4ccccc24)CCC3)c1 | 9.08
Cc1ccc(Nc2c3c(nc4ccccc24)CCC3)cc1 | 12.2
C/C(=N\Nc1nc2ccccc2[nH]1)c1ccc(Cl)s1 | 32.6
CN(C)c1ccc(/C=C/c2ccc3c4ccccc4ccc3[n+]2-c2ccccc2)cc1 | 0.26
O=C(NC1CCCCC1)C(c1ccncc1)N(Cc1ccccc1)C(=O)c1ccc(-c2ccccc2)[nH]1 (stereo not drawn) | 22.5
O=C(N/N=C/c1cc2c3c(c1O)CCCN3CCC2)c1ccccc1O | 3.56
CCCCCCCCCCCCCCCC[N+](C)(C)C | 0.79
O=S(=O)(Nc1cc(Sc2cccc3cccnc23)c(O)c2ccccc12)c1ccc(F)cc1 | 2.82
